Active and inactive are the calls of the source. No cut-off for these calls is given here.
How the values were obtained:
[1] = tested on: Botrytis cinerea; assay: Antifungal activity against Benzimidalzole-resistant Botryotinia fuckeliana isolate Bc-44 infected kidney bean leaves at 12.5 ppm treated as foliar application followed by incubation for 7 days in green house condition; type: functional
[2] = tested on: Botrytis cinerea; assay: Antifungal activity against Benzimidalzole-resistant Botryotinia fuckeliana isolate Bc-44 infected kidney bean leaves at 200 ppm treated as foliar application followed by incubation for 7 days in green house condition; type: functional
[3] = tested on: Cercospora beticola; assay: Antifungal activity against Benzimidalzole-resistant Cercospora beticola isolate Cb-19 infected in sugar beet seedlings at 12.5 ppm treated as foliar application 7 days prior to inoculation; type: functional
[4] = tested on: Cercospora beticola; assay: Antifungal activity against Benzimidalzole-resistant Cercospora beticola isolate Cb-19 infected in sugar beet seedlings at 12.5 ppm 24 hr-post inoculation; type: functional
[5] = tested on: Cercospora beticola; assay: Antifungal activity against Benzimidalzole-resistant Cercospora beticola isolate Cb-19 infected in sugar beet seedlings at 200 ppm 24 hr-post inoculation; type: functional
[6] = tested on: Botrytis cinerea; assay: Antifungal activity against Benzimidalzole-resistant Botryotinia fuckeliana isolate Bc-44 infected kidney bean leaves at 3.1 ppm treated as foliar application followed by incubation for 7 days in green house condition; type: functional
[7] = tested on: Botrytis cinerea; assay: Antifungal activity against Benzimidalzole-sensitive Botryotinia fuckeliana isolate Bc-9 infected compound-treated kidney bean leaves at 200 ppm after 4 days; type: functional
[8] = tested on: Botrytis cinerea; assay: Ratio of EC50 for Benzimidalzole-resistant Botryotinia fuckeliana isolate Bc-20 to EC50 for Benzimidalzole-resistant Botryotinia fuckeliana isolate Bc-44; type: functional
[9] = tested on: Botrytis cinerea; assay: Ratio of EC50 for Benzimidalzole-sensitive Botryotinia fuckeliana isolate Bc-9 to EC50 for Benzimidalzole-resistant Botryotinia fuckeliana isolate Bc-44; type: functional
[10] = tested on: Botrytis cinerea; assay: Ratio of EC50 for Benzimidalzole-sensitive Botryotinia fuckeliana isolate Bc-3 to EC50 for Benzimidalzole-resistant Botryotinia fuckeliana isolate Bc-44; type: functional
[11] = tested on: Botrytis cinerea; assay: Antifungal activity against Benzimidalzole-resistant Botryotinia fuckeliana isolate Bc-44 infected compound-treated kidney bean leaves at 50 ppm after 4 days; type: functional
[12] = tested on: Botrytis cinerea; assay: Antifungal activity against Benzimidalzole-resistant Botryotinia fuckeliana isolate Bc-44 infected compound-treated kidney bean leaves at 200 ppm after 4 days; type: functional
[13] = tested on: Botrytis cinerea; assay: Antifungal activity against Benzimidalzole-resistant Botryotinia fuckeliana isolate Bc-31 at 0.001 to 1000 ppm after 3 days by agar dilution method; type: functional, organism-based
[14] = tested on: Cercospora beticola; assay: Ratio of EC50 for Benzimidalzole-resistant Cercospora beticola isolate 20-2 to EC50 for Benzimidalzole-resistant Cercospora beticola isolate 18-2; type: functional
[15] = tested on: Cercospora beticola; assay: Ratio of EC50 for […] to EC50 for Benzimidalzole-resistant Cercospora beticola isole 28-8; type: functional
[16] = tested on: Cercospora beticola; assay: Ratio of EC50 for […] to EC50 for Benzimidalzole-resistant Cercospora beticola isole Cb-19; type: functional
[17] = tested on: Cercospora beticola; assay: Ratio of EC50 for Benzimidalzole-resistant Cercospora beticola isolate 18-11 to EC50 for Benzimidalzole-resistant Cercospora beticola isolate 49-4; type: functional
[18] = tested on: Cercospora beticola; assay: Ratio of EC50 for Benzimidalzole-resistant Cercospora beticola isolate 18-11 to EC50 for Benzimidalzole-resistant Cercospora beticola isole Cb-19; type: functional
[19] = tested on: Cercospora beticola; assay: Ratio of EC50 for Benzimidalzole-resistant Cercospora beticola isolate 6-13 to EC50 for Benzimidalzole-resistant Cercospora beticola isolate 49-4; type: functional
[20] = tested on: Cercospora beticola; assay: Ratio of EC50 for Benzimidalzole-resistant Cercospora beticola isolate 6-13 to EC50 for Benzimidalzole-resistant Cercospora beticola isole 28-8; type: functional
[21] = tested on: Cercospora beticola; assay: Antifungal activity against Benzimidalzole-resistant Cercospora beticola isolate 20-2 at 0.001 to 1000 ppm after 14 days by agar dilution method; type: functional, organism-based
[22] = tested on: Cercospora beticola; assay: Antifungal activity against Benzimidalzole-resistant Cercospora beticola isolate 18-11 at 0.001 to 1000 ppm after 14 days by agar dilution method; type: functional, organism-based
[23] = tested on: Cercospora beticola; assay: Antifungal activity against Benzimidalzole-resistant Cercospora beticola isolate 6-13 at 0.001 to 1000 ppm after 14 days by agar dilution method; type: functional, organism-based
[24] = tested on: Cercospora beticola; assay: Antifungal activity against Benzimidalzole-sensitive Cercospora beticola isolate 22-5 at 0.001 to 1000 ppm after 14 days by agar dilution method; type: functional, organism-based
[25] = tested on: Cercospora beticola; assay: Antifungal activity against Benzimidalzole-sensitive Cercospora beticola isolate 18-1 at 0.001 to 1000 ppm after 14 days by agar dilution method; type: functional, organism-based
[26] = tested on: Cercospora beticola; assay: Antifungal activity against Benzimidalzole-sensitive Cercospora beticola isolate 18-1 infected in compound-treated sugar beet seedlings at 200 ppm after 12 days; type: functional
[27] = tested on: Cercospora beticola; assay: Ratio of EC50 for Benzimidalzole-sensitive Cercospora beticola isolate 24-3 to EC50 for Benzimidalzole-resistant Cercospora beticola isolate 18-2; type: functional
[28] = tested on: Cercospora beticola; assay: Ratio of EC50 for Benzimidalzole-sensitive Cercospora beticola isolate 24-3 to EC50 for Benzimidalzole-resistant Cercospora beticola isolate 1-3; type: functional
[29] = tested on: Cercospora beticola; assay: Ratio of EC50 for Benzimidalzole-sensitive Cercospora beticola isolate 24-3 to EC50 for Benzimidalzole-resistant Cercospora beticola isole 28-8; type: functional
[30] = tested on: Cercospora beticola; assay: Ratio of EC50 for Benzimidalzole-sensitive Cercospora beticola isolate 24-3 to EC50 for Benzimidalzole-resistant Cercospora beticola isole Cb-19; type: functional
[31] = tested on: Cercospora beticola; assay: Ratio of EC50 for Benzimidalzole-sensitive Cercospora beticola isolate 22-5 to EC50 for Benzimidalzole-resistant Cercospora beticola isolate 49-4; type: functional
[32] = tested on: Cercospora beticola; assay: Ratio of EC50 for Benzimidalzole-sensitive Cercospora beticola isolate 22-5 to EC50 for Benzimidalzole-resistant Cercospora beticola isolate 18-2; type: functional
[33] = tested on: Cercospora beticola; assay: Ratio of EC50 for Benzimidalzole-sensitive Cercospora beticola isolate 22-5 to EC50 for Benzimidalzole-resistant Cercospora beticola isole Cb-19; type: functional
[34] = tested on: Cercospora beticola; assay: Ratio of EC50 for Benzimidalzole-sensitive Cercospora beticola isolate 18-1 to EC50 for Benzimidalzole-resistant Cercospora beticola isolate 49-4; type: functional
[35] = tested on: Cercospora beticola; assay: Ratio of EC50 for Benzimidalzole-sensitive Cercospora beticola isolate 18-1 to EC50 for Benzimidalzole-resistant Cercospora beticola isolate 18-2; type: functional
[36] = tested on: Cercospora beticola; assay: Ratio of EC50 for Benzimidalzole-sensitive Cercospora beticola isolate 18-1 to EC50 for Benzimidalzole-resistant Cercospora beticola isolate 1-3; type: functional
[37] = tested on: Cercospora beticola; assay: Ratio of EC50 for Benzimidalzole-sensitive Cercospora beticola isolate 18-1 to EC50 for Benzimidalzole-resistant Cercospora beticola isole Cb-19; type: functional
[38] = tested on: Botrytis cinerea; assay: Antifungal activity against Benzimidalzole-resistant Botryotinia fuckeliana isolate Bc-44 infected kidney bean leaves at 12.5 ppm 24 hr post-infection measured after 3 days; type: functional
[39] = tested on: Botrytis cinerea; assay: Antifungal activity against Benzimidalzole-resistant Botryotinia fuckeliana isolate Bc-44 infected kidney bean leaves at 50 ppm 24 hr post-infection measured after 3 days; type: functional
[40] = tested on: Botrytis cinerea; assay: Antifungal activity against Benzimidalzole-resistant Botryotinia fuckeliana isolate Bc-44 infected kidney bean leaves at 200 ppm 24 hr post-infection measured after 3 days; type: functional
[41] = tested on: Cercospora beticola; assay: Antifungal activity against Benzimidalzole-resistant Cercospora beticola isolate 18-2 infected in compound-treated sugar beet seedlings at 200 ppm after 12 days; type: functional
[42] = tested on: Cercospora beticola; assay: Antifungal activity against Benzimidalzole-resistant Cercospora beticola isolate Cb-19 infected in compound-treated sugar beet seedlings at 3.1 ppm after 12 days; type: functional
[43] = tested on: Cercospora beticola; assay: Antifungal activity against Benzimidalzole-resistant Cercospora beticola isolate Cb-19 infected in compound-treated sugar beet seedlings at 12.5 ppm after 12 days; type: functional

C#CCOc1c(Cl)cc(N/C=N/OC)cc1Cl
Activity [1]: 53% | Activity [2]: 100% | Activity [3]: 93% | Activity [4]: 96% | Activity [5]: 100% | Activity [6]: 17% | Activity [7]: 8% | Ratio EC50 [8]: > 1000 | Ratio EC50 [9]: > 1000 | Ratio EC50 [10]: > 1000 | Activity [11]: 100% | Activity [12]: 100% | Activity [13]: Active | Ratio EC50 [14]: > 1000 | Ratio EC50 [15]: > 1000 | Ratio EC50 [16]: > 1000 | Ratio EC50 [17]: > 1000 | Ratio EC50 [18]: > 1000 | Ratio EC50 [19]: > 1000 | Ratio EC50 [20]: > 1000 | Activity [21]: inactive | Activity [22]: inactive | Activity [23]: inactive | Activity [24]: inactive | Activity [25]: inactive | Activity [26]: 0% | Ratio EC50 [27]: > 1000 | Ratio EC50 [28]: > 1000 | Ratio EC50 [29]: > 1000 | Ratio EC50 [30]: > 1000 | Ratio EC50 [31]: > 1000 | Ratio EC50 [32]: > 1000 | Ratio EC50 [33]: > 1000 | Ratio EC50 [34]: > 1000 | Ratio EC50 [35]: > 1000 | Ratio EC50 [36]: > 1000 | Ratio EC50 [37]: > 1000 | Activity [38]: 93% | Activity [39]: 100% | Activity [40]: 100% | Activity [41]: 100% | Activity [42]: 91% | Activity [43]: 100%

C#CCOc1cc(N/C=N/OC)cc(Cl)c1OCC#C
Activity [1]: 63% | Activity [2]: 100% | Activity [3]: 80% | Activity [4]: 91% | Activity [5]: 100% | Activity [6]: 31% | Activity [7]: 7% | Ratio EC50 [8]: > 1000 | Ratio EC50 [9]: > 1000 | Ratio EC50 [10]: > 1000 | Activity [11]: 100% | Activity [12]: 100% | Activity [13]: Active | Ratio EC50 [14]: > 1000 | Ratio EC50 [15]: > 1000 | Ratio EC50 [16]: > 1000 | Ratio EC50 [17]: > 1000 | Ratio EC50 [18]: > 1000 | Ratio EC50 [19]: > 1000 | Ratio EC50 [20]: > 1000 | Activity [21]: inactive | Activity [22]: inactive | Activity [23]: inactive | Activity [24]: inactive | Activity [25]: inactive | Activity [26]: 0% | Ratio EC50 [27]: > 1000 | Ratio EC50 [28]: > 1000 | Ratio EC50 [29]: > 1000 | Ratio EC50 [30]: > 1000 | Ratio EC50 [31]: > 1000 | Ratio EC50 [32]: > 1000 | Ratio EC50 [33]: > 1000 | Ratio EC50 [34]: > 1000 | Ratio EC50 [35]: > 1000 | Ratio EC50 [36]: > 1000 | Ratio EC50 [37]: > 1000 | Activity [38]: 100% | Activity [39]: 100% | Activity [40]: 100% | Activity [41]: 100% | Activity [42]: 94% | Activity [43]: 100%

— ChEMBL document CHEMBL3046025, “Fungitoxic Properties of N-Phenylformamidoximes in Control of Benzimidazole-Resistant Isolates of Fungi” (1992)
